Source: patent publication US20110190267A1, “PRODRUGS OF OPIOIDS AND USES THEREOF” (priority 2010, published 2011)
Where “and” joins values, the source holds several entries; their conditions need not be identical. Equal values may be shown once. Where a name gives a salt, the structure may show the parent alone. Read-outs that look alike come from different tables or passages of the source. Marks after values point to notes of the source that are not given here.

Key:
[1] = type: in vitro ADME
[2] = type: physicochemical
Protocol: Additionally the potential activation at blood pH of 7.4 was investigated over a similar period. The concentrations of the prodrug & drug were assayed by HPLC.

[3] = Balikova et al. (2001); cited from earlier work
[4] = Pharmacokinetics of butorphanol or butorphanol PABA carbamate, monkeys (Example 43); type: in vivo, cynomolgus monkeys
Protocol: Blood samples were taken at various times after administration, and submitted to analysis for the parent drug and prodrug using a validated LC-MS-MS assay. Pharmacokinetic parameters derived from the plasma analytical data were determined using Win Nonlin.

[5] = Pharmacokinetics of butorphanol or butorphanol PABA carbamate, dogs (Example 44); type: in vivo, beagle dogs; details: butorphanol in plasma after oral butorphanol, 0.5 mg butorphanol free base/kg, dog; for half-life: read-out: t½ (converted)
Protocol: Test substances, butorphanol or butorphanol_PABA carbamate were orally administered to two male beagle dogs at 0.5 mg butorphanol free base equivalents/kg in a parallel group study design.

in vivo [6] = details: monkey, read-out: Monkey Oral Bioavailability (%)
Protocol: (§1) Blood samples were taken at various times after administration and submitted to analysis for the parent drug and prodrug using a validated LC-MS-MS assay. Pharmacokinetic parameters derived from the plasma analytical data were determined using Win Nonlin.

in vivo [7] = details: dog, read-out: Dog Oral Bioavailability (%)
Protocol: as §1

[8] = simulated intestinal fluid pH 6.8, 37 C

SMILES: CCC1(c2cccc(OC(=O)NC(C(=O)O)C(C)C)c2)CCCCN(C)C1 [Meptazinol (R)-valine carbamate]
- Biological/chemical stability - SIF - pH 6.8, 37 C. % prodrug remaining at 2 h [1, 8]: 74%
- Chemical Stability - pH 7.4, 37° C. % prodrug remaining at 2 h ([2]; pH 7.4, 37° C, 2 h): 96%

SMILES: COc1ccc2c3c1O[C@H]1[C@@H](O)CC[C@H]4[C@@H](C2)N(C)CC[C@@]341 [dihydrocodeine]
- oral dose converted to dihydromorphine [3]: less than 2%

SMILES: CCC1(c2cccc(OC(=O)N[C@H](C(=O)O)C(C)C)c2)CCCCN(C)C1 (some centres unmarked) [Meptazinol-valine carbamate]
- Chemical stability at pH 7.4 ([2]; pH 7.4): ~100%

SMILES: CCC1(c2cccc(OC(=O)NC(CCSC)C(=O)O)c2)CCCCN(C)C1 (centres unmarked) [Meptazinol methionine carbamate]
- Biological/chemical stability - SIF - pH 6.8, 37 C. % prodrug remaining at 2 h ([1]; simulated gi fluid, pH 6.8): 100%
- Chemical Stability, % prodrug remaining at 2 h, pH 10.0 ([2]; buffer, 2 h, pH 10): 60% pH 10.0

SMILES: CCC1(c2cccc(OC(=O)NC(C(=O)O)C(C)C)c2)CCCCN(C)C1 [Meptazinol (S) valine carbamate]
- Biological/chemical stability - SIF - pH 6.8, 37 C. % prodrug remaining at 2 h [1, 8]: 99%
- Chemical Stability, % prodrug remaining at 2 h, pH 10.0 ([2]; pH 10.0, 37° C, 2 h): 66% pH 10.0

SMILES: Oc1ccc2c(c1)[C@@]13CCCC[C@@]1(O)[C@@H](C2)N(CC1CCC1)CC3 [butorphanol]
- Cmax ([4]; butorphanol in plasma after oral butorphanol, 1.0 mg butorphanol free base/kg, monkey, single animal, below the LLOQ of 0.1 ng/mL): <0.1* ng/mL
- AUC ([4]; male, cynomolgus monkey, 1 mg butorphanol free base equivalents/kg, butorphanol in plasma after oral butorphanol, 1.0 mg butorphanol free base/kg, Average, estimate of maximal systemic exposure): 0.62 ng·h/mL
- Tmax ([4]; male, cynomolgus monkey, 1 mg butorphanol free base equivalents/kg, butorphanol in plasma after oral butorphanol, 1.0 mg butorphanol free base/kg, Average, plasma concentrations below the LLOQ of 0.1 ng/mL): 0.5 h
- half-life ([4]; male, cynomolgus monkey, plasma, 1 mg butorphanol free base equivalents/kg, butorphanol, oral butorphanol 1.0 mg free base/kg, Average, value after giving prodrug and used for estimating maximal systemic exposure, read-out: t½ (converted)): 6.1 h
- Cmax ([4]; male, cynomolgus monkey, plasma, po, 1 mg butorphanol free base equivalents/kg, butorphanol in plasma after oral butorphanol, 1.0 mg butorphanol free base/kg, Average, plasma concentrations below the LLOQ of 0.1 ng/mL, read-out: Cmax): 0.1 ng/mL
- Cmax ([4]; male, cynomolgus monkey, plasma, po, 1 mg butorphanol free base equivalents/kg, butorphanol in plasma after oral butorphanol, 1.0 mg butorphanol free base/kg, single animal, below the LLOQ of 0.1 ng/mL, read-out: Cmax): < 0.1 ng/mL
- T>50%Cmax ([5]; Average): 2.0 h
- AUC ([5]; single animal): 1.80 ng·h/mL
- Cmax ([5]; single animal): 0.56 ng/mL
- T>50%Cmax ([5]; single animal): 1.6 h and 2.4 h
- Tmax ([5]; single animal): 1.00 h
- t½ ([5]; single animal): 1.7 h
- AUC ([5]; male, beagle, plasma, po, 0.5 mg/kg, Average, read-out: AUC): 2.05 ng·h/mL
- Cmax ([5]; male, beagle, plasma, po, 0.5 mg/kg, Average, read-out: Cmax): 0.73 ng/mL
- Tmax ([5]; male, beagle, plasma, po, 0.5 mg/kg, Average, read-out: Tmax): 0.75 h
- half-life ([5]; male, beagle, plasma, po, 0.5 mg/kg, Average): 1.6 h
- AUC ([5]; male, beagle, plasma, po, 0.5 mg/kg, single animal, read-out: AUC): 2.3 ng·h/mL
- Cmax ([5]; male, beagle, plasma, po, 0.5 mg/kg, single animal, read-out: Cmax): 0.9 ng/mL
- Tmax ([5]; male, beagle, plasma, po, 0.5 mg/kg, single animal, read-out: Tmax): 0.5 h
- half-life ([5]; male, beagle, plasma, po, 0.5 mg/kg, single animal): 1.6 h

SMILES: CCC(C)C(NC(=O)Oc1cccc(C2(CC)CCCCN(C)C2)c1)C(=O)O (centres unmarked) [Meptazinol isoleucine carbamate]
- Biological/chemical stability - SIF - pH 6.8, 37 C. % prodrug remaining at 2 h [1, 8]: 99%
- Chemical Stability, % prodrug remaining at 2 h, pH 10.0 ([2]; pH 10.0, 37° C, 2 h): 73% pH 10.0

SMILES: CCC1(c2cccc(O)c2)CCCCN(C)C1 (centres unmarked) [Meptazinol HCl (oral), Meptazinol HCl]
- bioavailability (in vivo [6]): 1.8 ± 0.2%
- bioavailability (in vivo [7]): 6 ± 2.1%
